Laboratory results from ChEMBL document CHEMBL5727031, “Metabotropic glutamate receptor negative allosteric modulators (NAMS) and uses thereof” (2018).

Key:
[1] = (§1) In Vitro GIRK Thallium Flux Assay (60 minutes): Human Embryonic Kidney (HEK-293) cell lines co-expressing rat mGlu receptors 2, 3, 4, 6, 7 or 8 and G protein-coupled inwardly-rectifying potassium (GIRK) channels_ENREF_54 were grown in Growth Media containing 45% DMEM, 45% F-12, 10% FBS, 20 mM HEPES, 2 mM L-glutamine, antibiotic/antimycotic, non-essential amino acids, 700 μg/ml G418, and 0.6 μg/ml puromycin at 37° C. in the presence of 5% CO2. All cell culture reagents were purchased from Invitrogen Corp. (Carlsbad, Calif.) unless otherwise noted. Compound activity at the group II (mGlu2 and mGlu3) mGlus was assessed using thallium flux through GIRK channels. Briefly, cells were plated into 384-well, black-walled, clear-bottomed poly-D-lysine-coated plates at a density of 15,000 cells/20 μL/well in DMEM containing 10% dialyzed FBS, 20 mM HEPES, and 100 units/mL penicillin/streptomycin (assay media). Plated cells were incubated overnight at 37° C. in the presence of 5% CO2. The following day, the medium was exchanged from the cells to assay buffer [Hanks' balanced salt solution (Invitrogen) containing 20 mM HEPES, pH 7.3] using an ELX405 microplate washer (BioTek), leaving 20 μL/well, followed by the addition of 20 μL/well FluoZin2-AM (330 nM final concentration) indicator dye (Invitrogen; prepared as a stock in DMSO and mixed in a 1:1 ratio with Pluronic acid F-127) in assay buffer. Cells were incubated for 1 h at room temperature, and the dye exchanged to assay buffer using an ELX405, leaving 20 μL/well. Test compounds were diluted to 2 times their final desired concentration in assay buffer (0.3% DMSO final concentration). Agonists were diluted in thallium buffer [125 mM sodium bicarbonate (added fresh the morning of the experiment), 1 mM magnesium sulfate, 1.8 mM calcium sulfate, 5 mM glucose, 12 mM thallium sulfate, and 10 mM HEPES, pH 7.3] at 5 times the final concentration to be assayed. Cell plates and compound plates were loaded onto a kinetic imaging plate reader (FDSS 6000 or 7000; Hamamatsu Corporation, Bridgewater, N.J.). Appropriate baseline readings were taken (10 images at 1 Hz; excitation, 470±20 nm; emission, 540±30 nm) and test compounds were added in a 20 μL volume and incubated for either 2.5 min or 60 min as indicated before the addition of 10 μL of thallium buffer with or without agonist. After the addition of agonist, data were collected for approximately an additional 60 min. Data were analyzed using Excel (Microsoft Corp, Redmond, Wash.). The slope of the fluorescence increase beginning 5 s after thallium/agonist addition and ending 15 s after thallium/agonist addition was calculated, corrected to vehicle and maximal agonist control slope values, and plotted in using either XLfit (ID Business Solutions Ltd) or Prism software (GraphPad Software, San Diego, Calif.) to generate concentration-response curves. Potencies were calculated from fits using a four-point parameter logistic equation. For concentration-response curve experiments, compounds were serially diluted 1:3 into 10 point concentration response curves and were transferred to daughter plates using an Echo acoustic plate reformatter (Labcyte, Sunnyvale, Calif.). Test compounds were applied and followed by EC80 concentrations of glutamate.; conditions: HEK293, 1 h
[2] = as §1, with “Assay (2.5” for “Assay (60”, “additional 2.5” for “additional 60”; conditions: HEK293, 2.5 min
[3] = as above; conditions: HEK293, 2.5 min; remark: listed apart in the source
[4] = as §1; conditions: HEK293, 1 h; remark: listed apart in the source

SMILES	EC50 [1] [µM]	EC50 [2] [µM]	EC50 [3] [µM]	EC50 [4] [µM]
O=C(O)c1cc(-c2cccc(-c3cnc(-c4ccccc4)s3)c2)ccc1F	> 10	–	–	–
Cc1nc(-c2cccc(-c3ccc(F)cc3)c2)cs1	> 10	> 10	> 10	> 10
Fc1cccc(-n2nc(-c3cccc(-c4ccccc4)c3)nc2-c2ccccc2)c1	1.16	> 10	3.22	> 10
Cc1cc2c(cc1C(F)(F)F)NC(=O)CC(c1cccc(Oc3ccccc3)c1)N2 (stereo unspecified)	> 10	–	–	> 10
CC(C)(C)OC(=O)Nc1ccc(C(=O)OC(C)(C)C)cc1NC(=O)CC(=O)c1ccnc(C#N)c1	–	–	–	> 30
Fc1ccc(-c2cccc(-c3csc(-c4ccco4)n3)c2)cc1	> 30	> 10	2.4	> 10
Cn1nc(-c2cccc(-c3ccccc3)c2)nc1-c1ccccc1	> 10	> 10	0.59	1.48
Fc1ccc(-c2cccc(-c3csc(-c4ccc(C(F)(F)F)nc4)n3)c2)cc1	2.55	3.11	1.35	0.85
Fc1cccc(-c2cccc(-c3csc(-c4ccccc4)n3)c2)c1	> 30	> 10	0.64	0.35
Cc1cc2c(cc1C(F)(F)F)NC(=O)CC(c1cccc(Oc3cc(F)cc(F)c3)c1)=N2	–	–	–	> 10
Fc1cccc(-c2cccc(-c3nsc(-c4ccoc4)n3)c2)c1	1.23	3.43	0.17	0.11
Fc1ccccc1-c1cccc(-c2csc(-c3ccccc3)n2)c1	> 30	> 30	1.59	3.4
Cc1cc(-c2cccc(C3CC(=O)Nc4cc(NC(=O)Oc5ccccc5)ccc4N3)c2)cc(C)n1 (stereo unspecified)	> 10	–	–	> 10
O=C(O)c1ccccc1-c1cccc(-c2nc(-c3ccccc3)n(-c3ccccc3)n2)c1	> 10	–	–	> 30
c1ccc(-c2cccc(-c3nc(-c4ccoc4)n(-c4ccccc4)n3)c2)cc1	2.63	> 10	> 10	3.78
Cc1cc2c(cc1C(F)(F)F)NC(=O)CC(c1cccc(OCc3ccccc3)c1)N2 (stereo unspecified)	–	–	–	> 10
c1ccc(-c2cccc(-c3csc(-c4cccc5ccccc45)n3)c2)cc1	> 30	> 30	> 10	> 10
O=C1CC(c2cccc(Br)c2)Nc2ccc(NC(=O)OCc3ccccc3)cc2N1 (stereo unspecified)	–	–	–	> 10
Cc1cc2c(cc1C(F)(F)F)NC(=O)CC(c1cccc(Oc3ncccn3)c1)N2 (racemic)	–	–	> 10	–

SMILES	EC50 [1] [µM]	EC50 [2] [µM]	EC50 [3] [µM]	EC50 [4] [µM]
Cc1cc2c(cc1C(F)(F)F)NC(=O)CC(c1cccc(Br)c1)=N2	> 10	–	–	> 10
O=C(O)c1cccc(-c2cccc(-c3nc(-c4ccccc4)nn3-c3ccccc3)c2)c1	> 10	–	–	> 10
Fc1cccc(-c2cccc(-c3nc(-c4ccccc4)n(-c4ccccc4)n3)c2)c1	1.51	3.11	> 10	> 10
c1ccc(Cn2nc(-c3cccc(-c4ccccc4)c3)nc2-c2ccccc2)cc1	1.4	3.9	> 10	2.71
O=C(O)c1cc(-c2cccc(Oc3nc(-c4ccco4)cc(C(F)(F)F)n3)c2)ccc1F	–	–	–	> 30
c1ccc(-c2cccc(-c3nc(-c4ccccc4)n(-c4ccccc4)n3)c2)cc1	–	–	> 10	> 10
Cc1cc(-c2cccc(C3CC(=O)Nc4cc(NC(=O)OCc5ccccc5)ccc4N3)c2)cc(C)n1 (racemic)	–	–	> 10	–
Fc1ccc(-c2cccc(-c3nsc(-c4ccccc4)n3)c2)cc1	0.46	0.52	0.1	0.05
Cc1cc2c(cc1C(F)(F)F)NC(=O)CC(c1cccc(C#Cc3ccccc3)c1)=N2	> 10	–	–	> 10
Clc1ccccc1-c1cccc(-c2csc(-c3ccccc3)n2)c1	> 10	> 10	> 30	> 30
COc1ccc(-c2cccc(-c3nc(-c4ccco4)cc(C(F)(F)F)n3)c2)cc1C(=O)O	> 10	–	–	–
c1ccc(-c2cccc(-c3csc(-c4ccccc4)n3)c2)cc1	> 10	–	–	–
Fc1ccc(-c2cccc(-c3csc(-c4ccoc4)n3)c2)cc1	> 10	> 10	2.26	2.5
Cc1cc(NC(=O)OC(C)(C)C)c(NC(=O)CC(=O)c2cccc(Oc3ccccc3)c2)cc1C(F)(F)F	1.93	2.62	2.21	1.19
Fc1ccccc1-c1cccc(-c2nc(-c3ccccc3)n(-c3ccccc3)n2)c1	2.29	4.45	> 10	> 10
O/N=C\c1cc(-c2cccc(-c3csc(-c4ccccc4)n3)c2)ccc1F	> 10	> 30	> 30	> 10
Clc1ccc(-c2cccc(-c3csc(-c4ccccc4)n3)c2)cc1	1.33	0.79	0.57	0.8
O=C(O)c1cccc(-c2cccc(-c3coc(-c4ccccc4)n3)c2)c1	> 10	–	–	–
c1ccc(-c2cccc(-c3coc(-c4ccccc4)n3)c2)cc1	> 30	> 30	> 10	> 10

SMILES	EC50 [1] [µM]	EC50 [2] [µM]	EC50 [3] [µM]	EC50 [4] [µM]
O=C(O)c1ccccc1-c1cccc(-c2nc(-c3ccc(C(F)(F)F)nc3)cc(C(F)(F)F)n2)c1	> 10	–	–	> 10
c1ccc(-c2cccc(-c3csc(-c4ccc5ccccc5c4)n3)c2)cc1	> 10	> 30	> 10	4.98
Cc1cc(NC(=O)OC(C)(C)C)c(NC(=O)CC(=O)c2cccc(-n3ccc4ccccc43)c2)cc1C(F)(F)F	> 10	–	–	> 10
O=[N+]([O-])c1cccc(-c2cccc(-c3csc(-c4ccccc4)n3)c2)c1	> 30	> 10	> 10	> 10
O=C(O)c1ccc(-c2cccc(-c3nc(-c4ccc(C(F)(F)F)nc4)cc(C(F)(F)F)n3)c2)cc1	> 10	–	–	> 10
Cc1cc2c(cc1C(F)(F)F)NC(=O)CC(c1cccc(C#C[Si](C)(C)C)c1)N2 (stereo unspecified)	4.53	–	–	4.47
Cc1noc(C)c1-c1cc(C(F)(F)F)nc(-c2cccc(-c3ccc(F)c(C(=O)O)c3)c2)n1	> 10	–	–	> 10
O=C(O)c1ccccc1-c1cccc(-c2csc(-c3ccccc3)n2)c1	> 10	–	–	> 10
Cc1ccccc1-c1cc(C(F)(F)F)nc(-c2cccc(-c3ccc(F)c(C(=O)O)c3)c2)n1	> 10	–	–	–
N#Cc1cccc(C2=Nc3ccc(Br)cc3NC(=O)C2)c1	> 30	–	–	> 30
O=C1CC(c2ccnc(Br)c2)=Nc2ccc(-c3ccc(C(F)(F)F)cc3C(F)(F)F)cc2N1	> 10	–	–	–
O=C(O)c1cc(-c2cccc(-c3nc(-c4cc(C(F)(F)F)cc(C(F)(F)F)c4)cc(C(F)(F)F)n3)c2)ccc1F	> 10	–	–	–
O=C(O)c1cc(-c2ccc(-c3csc(-c4ccccc4)n3)cc2)ccc1F	–	–	–	> 30
c1ccc(-c2nc(-c3cccc(-c4cccc(-c5nn[nH]n5)c4)c3)cs2)cc1	> 10	–	–	–
O=C(O)c1cccc(-c2cccc(-c3cc(-c4ccccc4)sn3)c2)c1	> 10	–	–	–
NS(=O)(=O)c1cccc(-c2cn(-c3nc(-c4ccc(C(F)(F)F)nc4)cc(C(F)(F)F)n3)cn2)c1	–	–	–	> 10
Cc1cc2c(cc1C(F)(F)F)NC(=O)CC(c1cccc(Oc3cccc(Br)c3)c1)=N2	–	–	–	> 10
O=C(O)c1cccc(-c2cccc(-c3cn(-c4ccccc4)c(-c4ccccc4)n3)c2)c1	–	–	–	> 10
